Reference: patent US20090088373A1, “USE OF COMPOSITIONS TO ENHANCE INNATE IMMUNE RESPONSE” (priority 2007, published 2009)

Columns and labels:
HBD3 = HBD3 expression in normal human keratinocytes (NHEK); type: cell-based; set-up: unit not given here; conditions: Example 2
Experimental: To assess the effect of pimecrolimus on the innate immune response of the epidermis, cultures of normal human keratinocytes (NHEK) are stimulated with combinations of a concentration of 10 nM pimecrolimus, 1 μg/ml TLR 2/CD14 ligand—peptidoglycan (PGN), 10 μg/ml lipoteichoic acid (LTA), 2 0.1 μg/ml TLR 2/6 ligand—Malp-, and/or 0.1 μg/ml TLR 4/CD14 ligand—lipopolysaccharide (LPS). Expression of cathelicidin mRNA (Table 3) and protein as well as Human Beta Defensin (HBD) 2 (Table 4) and HBD3 (Table 5) expression in normal human keratinocytes is measured.

TLR1 = TLR1 gene expression by qPCR in NHEK; type: cell-based, human; conditions: Example 3; 10 nM pimecrolimus, 1 nM 1.25D3
Experimental: To assess the effect of pimecrolimus on the innate immune response of the epidermis, cultures of normal human keratinocytes (NHEK) are stimulated with a combination of a concentration of 10 nM pimecrolimus and of 1 nM 1.25D3. Gene expression of TLR1, TLR2, TLR4, TLR6 and CD14 are evaluated by qPCR. For CD14 protein expression, a Western Blot is performed and bands are quantified by densitometry using lmagej. Vehicle treated keratinocytes serve as controls. Cathelicidin protein expression is evaluated by immunofluorescence staining.

[1] = test system: Staphylococcus aureus ΔmprF; experiment: Growth of S. aureus ΔmprF (OD600) mixed with lysates of stimulated normal human keratinocytes; type: cell-based; conditions: for Bacterial growth OD600 (Mean): S. aureus + lysates of NHEK stimulated with 10 nM pimecrolimus, 1 nM 1.25D3 or combination, 37° C.
Experimental: To assess the effect of pimecrolimus on the innate immune response of the epidermis against bacteria, cultures of normal human keratinocytes (NHEK) are stimulated with a concentration of 10 nM pimecrolimus, 1 nM 1.25D3 (active 1.25 D-hydroxy calciferol) or their combination. Cells are lysed via sonication 20 minutes in an ice bath, after which cell lysates were mixed with Staphylococcus aureus ΔmprF cultures and incubated at 37° C. Bacterial growth over time is monitored by OD600 (Table 1). To determine if Pimecrolimus alone was able to kill Staphylococcus aureus ΔmprF, Pimecrolimus in a concentration of 10 nM is co-incubated with Staphylococcus aureus ΔmprF cultures and incubated at 37° C. (Table 2). Bacterial growth is monitored by OD600 (*: p<0.05; **: p<0.01; Student's t-test).

CC[C@@H]1/C=C(\C)C[C@H](C)C[C@H](OC)[C@H]2O[C@@](O)(C(=O)C(=O)N3CCCC[C@H]3C(=O)O[C@H](/C(C)=C/[C@@H]3CC[C@H](Cl)[C@H](OC)C3)[C@H](C)[C@@H](O)CC1=O)[C@H](C)C[C@@H]2OC [Pimecrolimus, pimecrolimus]
HBD3 expression (Mean) (HBD3; with 10 nM Pimecrolimus + 0.1 μg/ml LPS): 1.06
HBD3 expression (Mean) (HBD3; with 10 nM Pimecrolimus + 0.1 μg/ml Malp-2): 28.59
HBD3 expression (Mean) (HBD3; with 10 nM Pimecrolimus + 1 μg/ml PGN): 1.24
HBD3 expression (Mean) (HBD3; with 10 nM Pimecrolimus + 10 μg/ml LTA): 0.72
HBD3 expression (Mean) (HBD3; with 10 nM Pimecrolimus, no TLR ligand (control row)): 0.72
TLR1 mRNA expression (Mean) (TLR1): 3.16
Bacterial growth OD600 (Mean) ([1]; 0 h): 0.2253
Bacterial growth OD600 (Mean) ([1]; 2 h): 0.2557
Bacterial growth OD600 (Mean) ([1]; 4 h): 0.2807
Bacterial growth OD600 (Mean) ([1]; 5 h): 0.343
Bacterial growth OD600 (Mean) ([1]; 6 h): 0.4507
Bacterial growth OD600 (Mean) ([1]; 8 h): 0.6843
Antimicrobial effect of keratinocytes against S. aureus ΔmprF (in words) ([1]; summary of Table 1): increases the ability of keratinocytes to kill Staphylococcus aureus ΔmprF
